“Also recorded” adds a separate entry of the source.
Columns and labels:
S. shibatae topo VI = target: T1, S. shibatae topo VI (Saccharolobus shibatae, UniProt O05207+O05208); experiment: Protection from ADPNP-induced, S. shibatae topo VI-mediated DNA cleavage; format: biochemical, Sulfolobus shibatae
T1 construct: gift from Danielle Gadelle (University of Paris XI, Orsay)
Method: Assays to detect the stabilisation of cleavage complexes were identical to the protocol for topoisomerase activity detailed above, except as follows. Cleavage experiments with DNA gyrase were carried out in the absence of ATP and spermidine and 30 µL reactions were stopped with 3 µL 10% SDS and incubated with 3 µL 1 mg/mL proteinase K solution at 37°C for 1 h. For cleavage complex protection assays with suramin, the reaction buffer was modified to contain 4 mM CaCl2 rather than MgCl2.

M. mazei topo VI [1] = target: T2, M. mazei topo VI (Methanosarcina mazei, UniProt Q8PUB7+Q8PUB8); experiment: Agarose gel-based DNA relaxation assay; format: biochemical; settings: for IC50: gel relaxation assay, 1 unit (50 nM) topo VI, read-out: Approx. IC50 against M. mazei topo VI; for Mechanism (Topo VI): summary of mechanistic tests with M. mazei and S. shibatae topo VI
T2 construct: His tag; made in house
T2 sequence (Q8PUB8 whole entry): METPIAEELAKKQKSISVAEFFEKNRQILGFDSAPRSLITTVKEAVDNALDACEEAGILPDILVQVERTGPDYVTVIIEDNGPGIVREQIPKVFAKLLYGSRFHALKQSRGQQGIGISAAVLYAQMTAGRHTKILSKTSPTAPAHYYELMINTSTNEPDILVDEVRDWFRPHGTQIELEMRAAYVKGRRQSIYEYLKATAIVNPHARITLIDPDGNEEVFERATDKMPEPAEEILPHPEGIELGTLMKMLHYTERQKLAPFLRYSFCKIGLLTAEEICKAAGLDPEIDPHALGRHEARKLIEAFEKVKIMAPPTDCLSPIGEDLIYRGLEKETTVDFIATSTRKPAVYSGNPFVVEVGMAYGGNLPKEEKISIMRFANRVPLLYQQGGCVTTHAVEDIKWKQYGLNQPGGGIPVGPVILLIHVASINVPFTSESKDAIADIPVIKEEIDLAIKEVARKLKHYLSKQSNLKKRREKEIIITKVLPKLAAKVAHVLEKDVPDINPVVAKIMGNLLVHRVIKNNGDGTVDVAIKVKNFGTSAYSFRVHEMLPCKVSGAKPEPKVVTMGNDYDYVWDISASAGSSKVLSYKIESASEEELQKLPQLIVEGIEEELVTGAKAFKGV
T2 sequence (Q8PUB7 whole entry): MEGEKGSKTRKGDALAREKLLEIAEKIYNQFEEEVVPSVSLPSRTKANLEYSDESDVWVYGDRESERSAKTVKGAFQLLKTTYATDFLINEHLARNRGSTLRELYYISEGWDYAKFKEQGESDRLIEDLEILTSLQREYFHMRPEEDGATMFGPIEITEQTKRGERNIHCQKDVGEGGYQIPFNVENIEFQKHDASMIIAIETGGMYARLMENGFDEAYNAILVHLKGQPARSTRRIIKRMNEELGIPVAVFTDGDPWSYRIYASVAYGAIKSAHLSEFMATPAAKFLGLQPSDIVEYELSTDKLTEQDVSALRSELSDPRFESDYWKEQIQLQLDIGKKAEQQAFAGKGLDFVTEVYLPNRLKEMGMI
Method: The agarose gel-based assay was conducted as previously described, [44], [62]. In brief, topoisomerases were incubated with 0.5 µg of plasmid and the desired concentration of compound for 30 min at 37°C (for DNA gyrase and M. mazei topo VI) or 5 min at 75°C (for S. shibatae topo VI), in a total volume of 30 µL. […] Reactions were stopped by the addition of a loading buffer containing EDTA and the drug extracted by vortexing with either chloroform or aqueous butanol as required. In the case of M. mazei topo VI, it was necessary to include SDS in the loading buffer, at a final concentration of 1%. Samples were loaded onto a 1% agarose gel, run for the appropriate length of time and stained with ethidium bromide before visualisation on a UV transilluminator.

E. coli DNA gyrase [2] = target: T3, E. coli DNA gyrase (Escherichia coli, UniProt P0AES4+P0AES6); settings: not studied further in this paper; cited from earlier work
T3 construct: made in house
T3 sequence (P0AES4 whole entry, one chain of several): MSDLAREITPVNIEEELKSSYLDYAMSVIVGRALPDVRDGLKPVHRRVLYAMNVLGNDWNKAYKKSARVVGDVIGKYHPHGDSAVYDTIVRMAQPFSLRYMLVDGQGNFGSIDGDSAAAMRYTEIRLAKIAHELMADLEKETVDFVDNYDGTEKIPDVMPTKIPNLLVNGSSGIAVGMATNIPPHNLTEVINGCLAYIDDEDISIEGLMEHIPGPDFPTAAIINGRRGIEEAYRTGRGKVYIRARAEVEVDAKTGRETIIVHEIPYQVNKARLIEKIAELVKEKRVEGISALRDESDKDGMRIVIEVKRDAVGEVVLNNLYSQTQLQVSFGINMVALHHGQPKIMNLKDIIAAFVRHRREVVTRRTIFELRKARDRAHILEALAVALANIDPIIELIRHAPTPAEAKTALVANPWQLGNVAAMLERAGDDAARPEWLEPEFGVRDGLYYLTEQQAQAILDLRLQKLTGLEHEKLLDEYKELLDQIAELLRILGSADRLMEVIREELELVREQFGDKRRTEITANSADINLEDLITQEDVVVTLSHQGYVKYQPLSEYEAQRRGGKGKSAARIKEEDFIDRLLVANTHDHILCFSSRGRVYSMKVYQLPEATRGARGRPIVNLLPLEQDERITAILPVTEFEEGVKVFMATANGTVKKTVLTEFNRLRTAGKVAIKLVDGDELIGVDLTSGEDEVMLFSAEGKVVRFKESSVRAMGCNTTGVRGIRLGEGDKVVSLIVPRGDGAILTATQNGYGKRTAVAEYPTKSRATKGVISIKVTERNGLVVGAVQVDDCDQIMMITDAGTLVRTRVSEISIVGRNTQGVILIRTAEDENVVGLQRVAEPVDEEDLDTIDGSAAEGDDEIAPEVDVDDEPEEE

E. coli DNA gyrase [3] = target: T3, E. coli DNA gyrase; experiment: DNA triplex-based microtitre plate screen, gyrase supercoiling; format: biochemical; settings: 25 µM compound, duplicate
Method: The triplex-based assay was conducted as previously described [45]–[47]. In brief, oligonucleotide TFO1 was immobilised onto a streptavidin-coated microtitre plate. Excess oligonucleotide was removed by washing with buffer. […] The reaction was stopped by the addition of a low pH, high salt buffer and triplex formation was allowed to occur for 30 min at room temperature. The DNA retained on the plate was stained with SYBR Gold (Sigma) dye and the fluorescence readings for each well read in a SpectraMax Gemini fluorimeter (Molecular Devices).
Twelve plates were screened in duplicate over three days manually using a multichannel pipette as previously described. […] Each plate contained 16 control reactions: eight positive for enzyme activity, which contained enzyme but no library compounds, and eight negative for enzyme activity, which lacked both enzyme and library compounds. All controls were carried out with 5% DMSO.

M. mazei topo VI [4] = target: T2, M. mazei topo VI; experiment: Native gel shift assay, topo VI binding to 147 bp DNA fragment
Method: In order to test the effects of hit compounds upon DNA binding by topoisomerases, samples of enzyme and drug were prepared under the following conditions in a final volume of 10 μL: 1 nM 147 bp linear fragment of DNA derived from pBR322, [82] 50 mM Tris•HCl (pH 7.5), 100 mM KCl, 5 mM MgCl2, 2 mM DTT, 10% w/v glycerol. Samples were incubated for 30 min at room temperature before being run on a 5% (29:1) Protogel acrylamide (National Diagnostics) gel in 90 mM Tris·Borate, 5 mM MgCl2 at 150 V for 45 min. The DNA was stained by soaking in 2 µg/mL ethidium bromide for 10 min and visualised under UV light.

T1 sequence (O05207 whole entry): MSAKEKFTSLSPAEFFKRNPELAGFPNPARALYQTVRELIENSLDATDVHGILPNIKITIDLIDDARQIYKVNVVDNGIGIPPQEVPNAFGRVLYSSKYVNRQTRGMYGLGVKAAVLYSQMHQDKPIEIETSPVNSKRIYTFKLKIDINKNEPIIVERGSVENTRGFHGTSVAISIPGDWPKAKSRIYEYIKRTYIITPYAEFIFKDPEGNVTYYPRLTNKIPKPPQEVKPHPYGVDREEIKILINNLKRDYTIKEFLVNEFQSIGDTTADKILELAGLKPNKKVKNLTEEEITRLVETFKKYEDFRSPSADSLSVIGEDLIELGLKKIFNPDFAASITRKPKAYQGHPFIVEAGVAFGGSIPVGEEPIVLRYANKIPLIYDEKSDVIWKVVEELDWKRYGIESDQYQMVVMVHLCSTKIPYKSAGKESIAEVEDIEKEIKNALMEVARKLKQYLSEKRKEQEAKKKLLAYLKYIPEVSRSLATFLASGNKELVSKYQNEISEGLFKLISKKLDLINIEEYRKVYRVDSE
T1 sequence (O05208 whole entry): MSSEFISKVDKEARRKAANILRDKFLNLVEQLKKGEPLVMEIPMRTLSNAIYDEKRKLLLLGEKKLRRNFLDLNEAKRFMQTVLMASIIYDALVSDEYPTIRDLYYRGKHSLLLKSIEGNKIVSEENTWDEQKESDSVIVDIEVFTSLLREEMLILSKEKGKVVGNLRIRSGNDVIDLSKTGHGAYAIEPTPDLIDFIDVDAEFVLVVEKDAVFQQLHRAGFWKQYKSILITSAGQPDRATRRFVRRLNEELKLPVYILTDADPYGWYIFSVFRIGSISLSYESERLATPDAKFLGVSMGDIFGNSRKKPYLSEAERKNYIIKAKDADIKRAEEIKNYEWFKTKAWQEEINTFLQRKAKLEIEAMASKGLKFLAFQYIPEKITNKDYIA

Nc1c2ccccc2nc2ccccc12 [9-Aminoacridne, 9-aminoacridine]
Prevention of ADPNP-induced DNA cleavage by S. shibatae topo VI (S. shibatae topo VI): appeared to prevent ADPNP-induced cleavage
Inhibition in gel-based relaxation assay (hit validation) (M. mazei topo VI [1]): validated as hits
IC50 (M. mazei topo VI [1]): 6 µM
Mechanism (Topo VI) (M. mazei topo VI [1]): Prevents DNA cleavage

C[n+]1c2cc(N)ccc2cc2ccc(N)cc21 [Acriflavinium]
Mechanism (DNA gyrase), already characterised inhibitors (E. coli DNA gyrase [2]): ATPase inhibitor
Outcome in gyrase screen (hit threshold 25% inhibition) (E. coli DNA gyrase [3]): scored over the hit threshold

O=C(O)c1cn(C2CC2)c2cc(N3CCNCC3)c(F)cc2c1=O [Ciprofloxacin]
Mechanism (DNA gyrase), already characterised inhibitors (E. coli DNA gyrase [2]): Fluoroquinolone cleavage-complex stabiliser

COc1c(N2CCNC(C)C2)c(F)cc2c(=O)c(C(=O)O)cn(C3CC3)c12 (stereo not shown) [Gatifloxacin]
Mechanism (DNA gyrase), already characterised inhibitors (E. coli DNA gyrase [2]): Fluoroquinolone cleavage-complex stabiliser

C[C@H]1COc2c(N3CCN(C)CC3)c(F)cc3c(=O)c(C(=O)O)cn1c23 [Levofloxacin]
Mechanism (DNA gyrase), already characterised inhibitors (E. coli DNA gyrase [2]): Fluoroquinolone cleavage-complex stabiliser

CCn1cc(C(=O)O)c(=O)c2cc(F)c(N3CCNC(C)C3)c(F)c21 (stereo not shown) [Lomefloxacin]
Mechanism (DNA gyrase), already characterised inhibitors (E. coli DNA gyrase [2]): Fluoroquinolone cleavage-complex stabiliser

COc1c(N2C[C@@H]3CCCN[C@@H]3C2)c(F)cc2c(=O)c(C(=O)O)cn(C3CC3)c12 [Moxifloxacin]
Mechanism (DNA gyrase), already characterised inhibitors (E. coli DNA gyrase [2]): Fluoroquinolone cleavage-complex stabiliser

CCn1cc(C(=O)O)c(=O)c2cc(F)c(N3CCNCC3)cc21 [Norfloxacin]
Mechanism (DNA gyrase), already characterised inhibitors (E. coli DNA gyrase [2]): Fluoroquinolone cleavage-complex stabiliser

CC1COc2c(N3CCN(C)CC3)c(F)cc3c(=O)c(C(=O)O)cn1c23 (stereo not shown) [Ofloxacin]
Mechanism (DNA gyrase), already characterised inhibitors (E. coli DNA gyrase [2]): Fluoroquinolone cleavage-complex stabiliser

CCn1cc(C(=O)O)c(=O)c2cc(F)c(N3CCN(C)CC3)cc21.CS(=O)(=O)O [Perfloxacine Mesylate]
Mechanism (DNA gyrase), already characterised inhibitors (E. coli DNA gyrase [2]): Fluoroquinolone cleavage-complex stabiliser

O=C1c2ccccc2C(=O)c2c(O)c(O)cc(O)c21 [Purpurin]
Effect on binding of M. mazei topo VI to DNA (M. mazei topo VI [4]): appeared to prevent the binding of topo VI to DNA; also recorded: appeared to prevent G-segment binding
Prevention of ADPNP-induced DNA cleavage by S. shibatae topo VI (S. shibatae topo VI): marked ability to reduce the amount of cleavage
Inhibition in gel-based relaxation assay (hit validation) (M. mazei topo VI [1]): validated as hits
IC50 (M. mazei topo VI [1]): 40 µM
Mechanism (Topo VI) (M. mazei topo VI [1]): Blocks DNA binding

CCN(CC)CCCC(C)Nc1c2ccc(Cl)cc2nc2ccc(OC)cc12 (stereo not shown) [Quinacrine]
Prevention of ADPNP-induced DNA cleavage by S. shibatae topo VI (S. shibatae topo VI): appeared to prevent ADPNP-induced cleavage
Inhibition in gel-based relaxation assay (hit validation) (M. mazei topo VI [1]): validated as hits
IC50 (M. mazei topo VI [1]): 8 µM
Mechanism (Topo VI) (M. mazei topo VI [1]): Prevents DNA cleavage

O=C(O)c1cn(-c2ccc(F)cc2)c2cc(N3CCNCC3)c(F)cc2c1=O [Surafloxacin]
Mechanism (DNA gyrase), already characterised inhibitors (E. coli DNA gyrase [2]): Fluoroquinolone cleavage-complex stabiliser

CCn1nc(C(=O)O)c(=O)c2cc3c(cc21)OCO3 [cinoxacin]
Outcome in gyrase screen (hit threshold 25% inhibition) (E. coli DNA gyrase [3]): missed by the screen

CCn1cc(C(=O)O)c(=O)c2cc(F)c(N3CCNCC3)nc21 [enoxacin]
Outcome in gyrase screen (hit threshold 25% inhibition) (E. coli DNA gyrase [3]): missed by the screen

COc1cc(NS(C)(=O)=O)ccc1Nc1c2ccccc2nc2ccccc12 [m-Amsacrine]
Inhibition in gel-based relaxation assay (hit validation) (M. mazei topo VI [1]): validated as hits
IC50 (M. mazei topo VI [1]): 30 µM
Mechanism (Topo VI) (M. mazei topo VI [1]): Prevents DNA cleavage

CCn1cc(C(=O)O)c(=O)c2ccc(C)nc21 [nalidixic acid]
Outcome in gyrase screen (hit threshold 25% inhibition) (E. coli DNA gyrase [3]): missed by the screen

CCn1cc(C(=O)O)c(=O)c2cc3c(cc21)OCO3 [oxolinic acid]
Outcome in gyrase screen (hit threshold 25% inhibition) (E. coli DNA gyrase [3]): missed by the screen

— PMC3582512, “Application of a Novel Microtitre Plate-Based Assay for the Discovery of New Inhibitors of DNA Gyrase and DNA Topoisomerase VI” (PLoS ONE, 2013)
